# Reference: patent publication US20150336996A1, “MANGANESE-BASED MAGNETIC RESONANCE CONTRAST AGENTS” (THE GENERAL HOSPITAL CORPORATION, priority 2013, published 2015)
# Tests used:
# Assay type in all cases: physicochemical
# [1] = T1 relaxivity (r1) by inversion recovery on Bruker mq60 Minispec, 1.4 T, 37° C., TRIS buffer pH 7.4; conditions: for r1 (relaxivity of manganese complexes): pH 7.4, 37° C., 1.4 Tesla
# Method: (§1) Liquid chromatography-electrospray mass spectrometry (LC-MS) was performed using an Agilent 1100 Series apparatus with an LC/MSD trap and Daly conversion dynode detector with UV detection at 220, 254 and 280 nm. The methods used on this system are as follows: (a) Luna C18 column (100×2 mm); eluent A: H2O/0.1% formic acid, B: MeCN/0.1% formic acid; gradient: 5% B to 95% B over 9 minutes; flow rate 0.8 mL/min (used for characterization of organic compounds), and (b) Kromasil C18 column (250×4.6 mm); eluent C: 95% MeCN/5% 10 mM ammonium acetate, D: 10 mM ammonium acetate; gradient 5% C to 8% C over 14 minutes; flow rate 0.8 ml/min (used for characterization of manganese complexes). Reversed-phase semipreparative purification was performed on a Rainin Dynamax HPLC system with UV detection at 254 nm using a Polaris C18 column. The method used for purification is as follows: The mobile phase A was 50 mM ammonium acetate buffer, pH 6.5 and mobile phase B was a mixture of 5% 50 mM ammonium acetate buffer, pH 6.5/95% MeCN. Starting from 5% B, the fraction of B increased to 8% over 23 minutes. The column was washed with 100% B for 2 minutes and then ramped to 5% B. The system was re-equilibrated at 5% B for 3 minutes. Relaxivity measurements were performed on a Bruker mq60 Minispec at 1.4 T and 37° C. Manganese concentrations were determined using an Agilent 7500a ICP-MS system. All samples were diluted with 0.1% Triton X-100 in 5% nitric acid containing 20 ppb of Lu (as internal standard). The ratio of Mn (54.94)/Lu(174.97) was used to quantify the manganese concentration. A linear calibration curve ranging from 0.1 ppb to 200 ppb was generated daily for the quantification. UV-Vis spectra were recorded on a SpectraMax M2 spectrophotometer using quartz cuvette with a 1 cm path length. Cyclic voltammetry of Mn^IIHBET, Mn^IIEDTA and Mn^IIIHBET was recorded using a Nuvant EZstat pro potentiostat in TRIS buffer (pH=7.4), containing 0.5M KNO3 as supporting electrolyte, at 100 mVs-1 scan rate. Glassy carbon was used as the working electrode, Ag/AgCl served as the reference electrode and Pt wire was used as the auxiliary electrode. The K4FeCN6/K3FeCN6 couple was used as the internal standard.
# T1 was measured with an inversion recovery pulse sequence taking 10 inversion times. Relaxivity was determined from the slope of a plot of 1/T1 vs. concentration of in TRIS buffer, pH=7.4 at 37° C. The concentration of manganese in each stock solution was determined using ICP-MS.
# All chemicals and solvents were purchased commercially and used without further purification. NMR spectra were recorded on either a 500 MHz or 400 MHz Varian spectrometers. Chemical shifts are reported in δ (ppm). For ^1H and ^13C NMR spectra, the residual solvent peaks were used as internal reference, except for the ^13C NMR of the ligand where tertiary-butanol was used as the internal reference. Liquid chromatography-electrospray mass spectrometry (LC-MS) was performed using an Agilent 1100 Series apparatus with an LC/MSD trap and Daly conversion dynode detector with UV detection at 220, 254 and 280 nm. The methods used on this system are as follows: (a) Luna C18 column (100×2 mm); eluent A: H2O/0.1% formic acid, B: MeCN/0.1% formic acid; gradient: 5% B to 95% B over 9 minutes; flow rate 0.8 mL/min (used for characterization of organic compounds), and (b) Kromasil C18 column (250×4.6 mm); eluent C: 95% MeCN/5% 10 mM ammonium acetate, D: 10 mM ammonium acetate; gradient 5% C to 8% C over 14 minutes; flow rate 0.8 ml/min (used for characterization of manganese complexes). Reversed-phase semipreparative purification was performed on the Rainin Dynamax HPLC system with UV detection at 254 nm using a Polaris C18 column. The method used for purification is as follows: The mobile phase A was 50 mM ammonium acetate buffer, pH 6.5 and mobile phase B was a mixture of 5% 50 mM ammonium acetate buffer, pH 6.5/95% MeCN. Starting from 5% B, the fraction of B increased to 8% over 23 minutes. […]
# [2] = UV spectrum as a function of pH (phenol deprotonation pKa); conditions: fit of UV absorbance vs pH
# Method: To probe the speciation of the manganese complexes in solution, pH titrations of 1:1 Mn^2+:ligand were performed using a 1 N NaOH under N2 atmosphere (FIG. 21).
# To determine the species that exists in these two pH ranges the UV spectrum as a function of pH was monitored (see FIGS. 22-24).
# [3] = Cyclic voltammetry of the Mn(III)/Mn(II) redox couple; conditions: for Half-cell potential vs. normal hydrogen electrode (NHE): pH 7.4, vs. NHE
# Method: Potentials are vs. K4Fe(CN)6/K3Fe(CN)6; and in (b), a Cottrell plot of the Mn^2+/Mn^3+ couple—ia, (decreasing line) and ic (increasing line) vs. √v, where v=scan rate.
# as §1
# [4] = Kinetics of reduction of Mn^III-HBET by glutathione; conditions: 37° C., pH 7.4; first-order in both [GSH] and [Mn^III-HBET]
# Method: A series of kinetic experiments were conducted at 37° C. (pH 7.4) to determine the empirical rate law for the reduction of Mn^III-HBET by glutathione. […] This feature allowed us to easily monitor the reduction of Mn^III-HBET over time. We measured initial reaction rates at three different glutathione concentrations (5 mM, 10 mM and 20 mM). For each glutathione concentration, the reaction was performed at four different initial concentrations of M^III-HBET (0.3 mM, 0.4 mM, 0.5 mM and 0.6 mM). Based on these experiments, we determined that the reaction was first-order in both [GSH] and [Mn^III-HBET] with an overall second-order rate constant of (3.8±0.3)×10^−1 M^−1 s^−1.
# This series of kinetic experiments were conducted at 37° C. (pH 7.4) to determine the empirical rate law for the reduction of Mn^III-HBET by glutathione. […] Initial reaction rates were measured at a three different glutathione concentrations (5 mM, 10 mM and 20 mM). […]
# Here, the observed rate constant (kobs) is simply the product of the actual rate constant (k) and [GSH], t is time, and the subscripts ‘t’ and ‘o’ refer to the concentration at time T or the initial concentration, respectively. […] Based on these experiments, we determined that the reaction was first-order in both [GSH] and [Mn^III-HBET] with an overall second-order rate constant of (3.8±0.3)×10^−1 M^−1 s^−1.
# [5] = Stability of manganese complexes in buffers
# Method: The stability of the manganese complexes were measured in different buffers using concentrations similar to those found in the blood plasma (1 mM phosphate buffer, 25 mM sodium bicarbonate buffer and 0.1 mM citrate buffer). A solution, 0.5 mM, of the manganese complex was incubated in the respective buffers at 37° C. (pH=7.4) and the species were then quantified on the LC-MS using the method as described earlier. The manganese complexes (0.5 mM) were also treated with EDTA (0.5 mM) in TRIS buffer (pH=7.4) and incubated at 37° C. for 1 hour. The species were then quantified on the LC-MS using the method as described earlier.
# [6] = Relaxivity at different field strengths in pH 7.4 HEPES buffer; conditions: 37° C.
# Method: The relaxivities of the compounds for Formulas (XI) and (XII) were determined at different field strengths at 37° C. in pH 7.4 HEPES buffer. The relaxivity was obtained from the slope of a plot of 1/T1 vs. [Mn] for different Mn concentrations. Since Formula (XI) contains 6 Mn per molecule, the ionic (per Mn) and molecular (per molecule) relaxivities are given below.
# [7] = Stability of solutions at room temperature
# Method: 40 binds Mn^II in a 1:1 ratio. This complex was prepared and characterized in situ. Mn^II was carefully titrated to 40 and Mn:40 stoichiometry was monitored by LC-MS or T2-relaxometry as describe above. […] 433.1.
compound,measurement,setting,value
"O=C([O-])CN(CC(=O)[O-])C1CCCCC1N(CC(=O)[O-])Cc1ccccc1[O-].[Mn+2].[Na+].[Na+] (racemic) [Compound 20, Na2[Mn^IIcycHBET]]",r1 (relaxivity of manganese complexes),[1],3.26 mM⁻¹ s⁻¹
same,pKa for ionization of the phenol,[2],7.95
"O=C([O-])CN(CC(=O)[O-])C1CCCCC1N(CC(=O)[O-])Cc1ccccc1[O-].[Mn+3].[Na+] (racemic) [Compound 21, Na[Mn^IIIcycHBET]]",r1 (relaxivity of manganese complexes),[1],1.56 mM⁻¹ s⁻¹
same,Half-cell potential vs. normal hydrogen electrode (NHE),[3],365 mV
"O=C([O-])CN(CC(=O)[O-])C1CCCCC1N(CC(=O)[O-])Cc1cc([N+](=O)[O-])ccc1[O-].[Mn+2].[Na+].[Na+] (racemic) [Compound 30, Na2[Mn^IIcycHBET-NO2)]]",r1 (relaxivity of manganese complexes),[1],2.30 mM⁻¹ s⁻¹
"O=C([O-])CN(CC(=O)[O-])C1CCCCC1N(CC(=O)[O-])Cc1cc([N+](=O)[O-])ccc1[O-].[Mn+3].[Na+] (racemic) [Compound 31, Na[Mn^IIIcycHBET-NO2]]",Half-cell potential vs. normal hydrogen electrode (NHE),[3],488 mV
"O=C([O-])CN(CCN(CC(=O)[O-])Cc1ccccc1[O-])CC(=O)[O-].[Mn+3].[Na+] [Compound 5, Na[Mn^IIIHBET]]",overall second-order rate constant of reduction by glutathione,[4],(3.8±0.3)×10^−1 M^−1 s^−1
same,T1 relaxivities,"[1]; 1.4 T, Tris buffered saline pH 7.4, 37° C.",1.05 mM⁻¹ s⁻¹
same,r1 (relaxivity of manganese complexes),[1],1.05 mM⁻¹ s⁻¹
same,stability in phosphate and carbonate buffers,[5],stable
"COc1ccc([O-])c(CN(CCN(CC(=O)[O-])CC(=O)[O-])CC(=O)[O-])c1.[Mn+2].[Na+].[Na+] [Compound 9, Na2[Mn^IIHBET-OMe]]",r1 (relaxivity of manganese complexes),[1],3.11 mM⁻¹ s⁻¹
same,pKa for ionization of the phenol,[2],7.91
same,Half-cell potential vs. normal hydrogen electrode (NHE),[3],344 mV
"O=C([O-])CN(CCN(CC(=O)[O-])Cc1cc([N+](=O)[O-])ccc1[O-])CC(=O)[O-].[Mn+2].[Na+].[Na+] [Compound 13, Na2[Mn^IIHBET-NO2]]",r1 (relaxivity of manganese complexes),[1],2.28 mM⁻¹ s⁻¹
same,pKa for ionization of the phenol,[2],4.84
"O=C([O-])CN(CCN(CC(=O)[O-])Cc1cc([N+](=O)[O-])ccc1[O-])CC(=O)[O-].[Mn+3].[Na+] [Compound 14, Na[Mn^IIIHBET-NO2]]",r1 (relaxivity of manganese complexes),[1],0.34 mM⁻¹ s⁻¹
same,Half-cell potential vs. normal hydrogen electrode (NHE),[3],476 mV
"O=C([O-])CN(CCN(CC(=O)[O-])Cc1ccccc1[O-])Cc1ccccc1[O-].[Mn+3] [Mn^III-HBED, reference compound]",half-cell potentials (Mn^II/Mn^III),"[3]; irreversible oxidation / quasi-reversible reduction peaks, TRIS buffer pH 7.4",0.016 V
Mn6[N3P3-(TyOH-EDTA)6] [Compound 55],Relaxivity r1 at 0.47T (per Mn),"[6]; 0.47T, ionic (per Mn)",9.07 mM⁻¹ s⁻¹
same,Relaxivity r1 at 0.47T per molecule,"[6]; 0.47T, molecular (per molecule, 6 Mn)",54.4 mM⁻¹ s⁻¹
same,Relaxivity r1 at 1.4T (per Mn),"[6]; 1.4T, ionic (per Mn)",9.28 mM⁻¹ s⁻¹
same,Relaxivity r1 at 1.4T per molecule,"[6]; 1.4T, molecular (per molecule, 6 Mn)",55.7 mM⁻¹ s⁻¹
same,Relaxivity r1 at 4.7T (per Mn),"[6]; 4.7T, ionic (per Mn)",6.54 mM⁻¹ s⁻¹
same,Relaxivity r1 at 4.7T per molecule,"[6]; 4.7T, molecular (per molecule, 6 Mn)",39.2 mM⁻¹ s⁻¹
same,Relaxivity r1 at 9.4T (per Mn),"[6]; 9.4T, ionic (per Mn)",4.94 mM⁻¹ s⁻¹
same,Relaxivity r1 at 9.4T per molecule,"[6]; 9.4T, molecular (per molecule, 6 Mn)",29.6 mM⁻¹ s⁻¹
same,Relaxivity r1 at 11.7T (per Mn),"[6]; 11.7T, ionic (per Mn)",3.57 mM⁻¹ s⁻¹
same,Relaxivity r1 at 11.7T per molecule,"[6]; 11.7T, molecular (per molecule, 6 Mn)",21.4 mM⁻¹ s⁻¹
Na[Mn(TyOH-EDTA)] [Compound 52],Relaxivity r1 at 0.47T (per Mn),"[6]; 0.47T, ionic (per Mn)",3.60 mM⁻¹ s⁻¹
same,Relaxivity r1 at 1.4T (per Mn),"[6]; 1.4T, ionic (per Mn)",2.80 mM⁻¹ s⁻¹
same,Relaxivity r1 at 9.4T (per Mn),"[6]; 9.4T, ionic (per Mn)",3.65 mM⁻¹ s⁻¹
same,Relaxivity r1 at 11.7T (per Mn),"[6]; 11.7T, ionic (per Mn)",3.05 mM⁻¹ s⁻¹
[Mn(CyP3A)] [Compound 41],Relaxivities r1 at 1.41T,"[1]; 1.41T, 37° C., pH 7.4 Tris buffer",2.50 mM⁻¹ s⁻¹
same,stability of solutions,[7],indefinitely stable
